Data published in US12257247B2 (Monte Rosa Therapeutics AG, priority 2023, dated 2025).
Read-outs that look alike come from different tables or passages of the source.

Target: T1, VAV1 (Homo sapiens, UniProt P15498+Q96SW2)
T1 construct: A heterozygous VAV1 C-terminal HiBiT knock-in pool was generated at Monte Rosa Therapeutics from a clonal Jurkat cell; endogenous in cells; host or cells: Jurkat clone stably expressing LgBiT, homozygous GSPT1-G575N; heterozygous VAV1-HiBiT knock-in pool
Test: VAV1 degradation activity, VAV1-HiBiT knock-in Jurkat luminescence assay (Example A, Table 1)
Format: cell-based
Settings: VAV1-HiBiT knock-in Jurkat cells, luminescence read at 6 and 24 hours; for Dmax: Jurkat
Method in brief: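 Jurkat cells carrying VAV1-HiBiT knock-in, plated in RPMI/10% FBS with Endurazine live-cell substrate and pre-incubated ~16 h at 37° C. Compound dosed from 10 μM stock; luminescence read 6 and 24 h later. Response normalised to plate negative/positive controls, EC50 from 3-parameter logistic fit (hillslope 1).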

[1] = read-out: VAV1 DC50 (nM), class

| Structure (SMILES) | Dmax (read-out: VAV1 Dmax %) | Dmax (read-out: VAV1 Dmax %, class) | DC50 (read-out: VAV1 DC50) | DC50 [1] |
| --- | --- | --- | --- | --- |
| CN1CC2(CCC(=O)N2c2ccc(-c3cccc(C4CCC(=O)NC4=O)c3Cl)cc2)C1 (stereo not shown) [Compound 371, 3-(2-chloro-4′-(2-methyl-6-oxo-2,5-diazaspiro[3.4]octan-5-yl)-[1,1′-biphenyl]-3-yl)piperidine-2,6-dione] | 37.8% | < 60% | ≥ 10000 nM | > 1000 nM |
| O=C1CCC(c2cccc(-c3ccc(N4CCCNC4=O)cc3)c2Cl)C(=O)N1 (stereo not shown) [Compound 372, 3-(2-chloro-4′-(2-oxotetrahydropyrimidin-1(2H)-yl)-[1,1′-biphenyl]-3-yl)piperidine-2,6-dione] | 94.4% | > 90% | 10 nM | ≤ 100 nM |
| O=C1CCC(c2cccc(-c3ccc(Cc4ccco4)cc3)c2Cl)C(=O)N1 (stereo not shown) [Compound 373, 3-(2-chloro-4′-(furan-2-ylmethyl)-[1,1′-biphenyl]-3-yl)piperidine-2,6-dione] | 97.2% | > 90% | 25.6 nM | ≤ 100 nM |
| O=C1CCC(c2cccc(-c3ccc(Cc4cccnc4)cc3)c2Cl)C(=O)N1 (stereo not shown) [Compound 374, 3-(2-chloro-4′-(pyridin-3-ylmethyl)-[1,1′-biphenyl]-3-yl)piperidine-2,6-dione] | 97.4% | > 90% | 10.2 nM | ≤ 100 nM |
| COC(=O)c1ccc(Cc2ccc(-c3cccc(C4CCC(=O)NC4=O)c3Cl)cc2)n1C (stereo not shown) [Compound 375, methyl 5-((2′-chloro-3′-(2,6-dioxopiperidin-3-yl)-[1,1′-biphenyl]-4-yl)methyl)-1-methyl-1H-pyrrole-2-carboxylate] | 98% | > 90% | 14.2 nM | ≤ 100 nM |
| O=C1CCC(c2cccc(-c3ccc(Cc4cncnc4)cc3)c2Cl)C(=O)N1 (stereo not shown) [Compound 376, 3-(2-chloro-4′-(pyrimidin-5-ylmethyl)-[1,1′-biphenyl]-3-yl)piperidine-2,6-dione] | 95.8% | > 90% | 15.2 nM | ≤ 100 nM |
| O=C1CCC(c2cccc(-c3ccc(Cc4cccs4)cc3)c2Cl)C(=O)N1 (stereo not shown) [Compound 377, 3-(2-chloro-4′-(thiophen-2-ylmethyl)-[1,1′-biphenyl]-3-yl)piperidine-2,6-dione] | 98.8% | > 90% | 17.2 nM | ≤ 100 nM |
| CN1CCC(C)(C)N(c2ccc(-c3cccc(C4CCC(=O)NC4=O)c3Cl)cc2)C1=O (stereo not shown) [Compound 378, 3-(2-chloro-4′-(3,6,6-trimethyl-2-oxotetrahydropyrimidin-1(2H)-yl)-[1,1′-biphenyl]-3-yl)piperidine-2,6-dione] | 98.3% | > 90% | 1.56 nM | ≤ 100 nM |
| O=C1CCC(c2cccc(-c3ccc4c(c3)CCCO4)c2Cl)C(=O)N1 (stereo not shown) [Compound 381, 3-[2-chloro-3-(3,4-dihydro-2H-1-benzopyran-6-yl)phenyl]piperidine-2,6-dione] | 96.5% | > 90% | 35.9 nM | ≤ 100 nM |
| CN1CCCN(c2ncc(-c3cccc(C4CCC(=O)NC4=O)c3Cl)cc2F)C1=O (stereo not shown) [Compound 382, 3-(2-chloro-3-(5-fluoro-6-(3-methyl-2-oxotetrahydropyrimidin-1(2H)-yl)pyridin-3-yl)phenyl)piperidine-2,6-dione] | 76% | 60 to 90% | 167 nM | 100 to 1000 nM |
| CN1CCCN(Cc2ncc(-c3cccc(C4CCC(=O)NC4=O)c3Cl)cc2F)C1=O (stereo not shown) [Compound 383, 3-(2-chloro-3-(5-fluoro-6-((3-methyl-2-oxotetrahydropyrimidin-1(2H)-yl)methyl)pyridin-3-yl)phenyl)piperidine-2,6-dione] | 80.2% | 60 to 90% | 113 nM | 100 to 1000 nM |
| O=C1CCC(c2cccc(-c3ccc(N4C(=O)CCC45CC5)nc3)c2Cl)C(=O)N1 (stereo not shown) [Compound 384, 3-(2-chloro-3-(6-(5-oxo-4-azaspiro[2.4]heptan-4-yl)pyridin-3-yl)phenyl)piperidine-2,6-dione] | 75.5% | 60 to 90% | 122 nM | 100 to 1000 nM |
| O=C1CCC(c2cccc(-c3ccc(Cc4ncco4)c(F)c3)c2Cl)C(=O)N1 (stereo not shown) [Compound 385, 3-(2-chloro-3′-fluoro-4′-(oxazol-2-ylmethyl)-[1,1′-biphenyl]-3-yl)piperidine-2,6-dione] | 97.8% | > 90% | 7 nM | ≤ 100 nM |
| O=C1CCC(c2cccc(-c3ccc(N4CC5(COC5)CC4=O)cc3)c2Cl)C(=O)N1 (stereo not shown) [Compound 386, 3-(2-chloro-4′-(7-oxo-2-oxa-6-azaspiro[3.4]octan-6-yl)-[1,1′-biphenyl]-3-yl)piperidine-2,6-dione] | 29.2% | < 60% | ≥ 10000 nM | > 1000 nM |
| CN1CCN(c2ccc(-c3cccc(C4CCC(=O)NC4=O)c3Cl)cc2)C1=O (stereo not shown) [Compound 387, 3-(2-chloro-4′-(3-methyl-2-oxoimidazolidin-1-yl)-[1,1′-biphenyl]-3-yl)piperidine-2,6-dione] | 58.4% | < 60% | 865 nM | 100 to 1000 nM |
| CN1CCN(Cc2ccc(-c3cccc(C4CCC(=O)NC4=O)c3Cl)cc2)C1=O (stereo not shown) [Compound 388, 3-(2-chloro-4′-((3-methyl-2-oxoimidazolidin-1-yl)methyl)-[1,1′-biphenyl]-3-yl)piperidine-2,6-dione] | 91% | > 90% | 16.2 nM | ≤ 100 nM |
| O=C1CCC(c2cccc(-c3ccc(N4C(=O)CCCC45CC5)nc3)c2Cl)C(=O)N1 (stereo not shown) [Compound 389, 3-(2-chloro-3-(6-(5-oxo-4-azaspiro[2.5]octan-4-yl)pyridin-3-yl)phenyl)piperidine-2,6-dione] | 88.5% | 60 to 90% | 41.4 nM | ≤ 100 nM |
| N#CC1(CN2C(=O)Cc3cc(-c4cccc(C5CCC(=O)NC5=O)c4Cl)ccc32)CC1 (stereo not shown) [Compound 390, 1-((5-(2-chloro-3-(2,6-dioxopiperidin-3-yl)phenyl)-2-oxoindolin-1-yl)methyl)cyclopropane-1-carbonitrile] | 71.2% | 60 to 90% | 615 nM | 100 to 1000 nM |
| COC1(CN2C(=O)Cc3cc(-c4cccc(C5CCC(=O)NC5=O)c4Cl)ccc32)CC1 (stereo not shown) [Compound 391, 3-(2-chloro-3-(1-((1-methoxycyclopropyl)methyl)-2-oxoindolin-5-yl)phenyl)piperidine-2,6-dione] | 54% | < 60% | 5110 nM | > 1000 nM |
| Cn1cnc(Cn2c(=O)oc3cc(-c4cccc(C5CCC(=O)NC5=O)c4Cl)ccc32)c1 (stereo not shown) [Compound 392, 3-(2-chloro-3-(3-((1-methyl-1H-imidazol-4-yl)methyl)-2-oxo-2,3-dihydrobenzo[d]oxazol-6-yl)phenyl)piperidine-2,6-dione] | 94.8% | > 90% | 12.8 nM | ≤ 100 nM |
| O=C1CCC(c2cccc(-c3ccc4c(c3)CC(=O)N4Cc3ncccn3)c2Cl)C(=O)N1 (stereo not shown) [Compound 393, 3-(2-chloro-3-(2-oxo-1-(pyrimidin-2-ylmethyl)indolin-5-yl)phenyl)piperidine-2,6-dione] | 86.7% | 60 to 90% | 29.3 nM | ≤ 100 nM |
| O=C1CCC(c2cccc(-c3ccc(N4C(=O)CCC45CCC5)nc3)c2Cl)C(=O)N1 (stereo not shown) [Compound 394, 3-(2-chloro-3-(6-(6-oxo-5-azaspiro[3.4]octan-5-yl)pyridin-3-yl)phenyl)piperidine-2,6-dione] | 88.7% | 60 to 90% | 36.2 nM | ≤ 100 nM |
| O=C1CCC(c2cccc(-c3ccc4c(c3)CC(=O)N4Cc3cccnn3)c2Cl)C(=O)N1 (stereo not shown) [Compound 395, 3-(2-chloro-3-(2-oxo-1-(pyridazin-3-ylmethyl)indolin-5-yl)phenyl)piperidine-2,6-dione] | 83.9% | 60 to 90% | 55.7 nM | ≤ 100 nM |
| O=C1CCC(c2cccc(-c3ccc4c(cnn4Cc4ncccn4)c3)c2Cl)C(=O)N1 (stereo not shown) [Compound 396, 3-(2-chloro-3-(1-(pyrimidin-2-ylmethyl)-1H-indazol-5-yl)phenyl)piperidine-2,6-dione] | 96.9% | > 90% | 4.98 nM | ≤ 100 nM |
| Cn1cnc(Cn2ncc3cc(-c4cccc(C5CCC(=O)NC5=O)c4Cl)ccc32)c1 (stereo not shown) [Compound 397, 3-(2-chloro-3-(1-((1-methyl-1H-imidazol-4-yl)methyl)-1H-indazol-5-yl)phenyl)piperidine-2,6-dione] | 99.1% | > 90% | 3.01 nM | ≤ 100 nM |
| O=C1CCC(c2cccc(-c3ccc(Cc4ncccn4)nc3)c2Cl)C(=O)N1 (stereo not shown) [Compound 400, 3-(2-chloro-3-(6-(pyrimidin-2-ylmethyl)pyridin-3-yl)phenyl)piperidine-2,6-dione] | 81.5% | 60 to 90% | 77 nM | ≤ 100 nM |
| O=C1CCC(c2cccc(-c3ccc(Cc4ccncn4)cc3)c2Cl)C(=O)N1 (stereo not shown) [Compound 401, 3-(2-chloro-4′-(pyrimidin-4-ylmethyl)-[1,1′-biphenyl]-3-yl)piperidine-2,6-dione] | 94.4% | > 90% | 15 nM | ≤ 100 nM |
| CC1(C)COCC(=O)N1c1ccc(-c2cccc(C3CCC(=O)NC3=O)c2Cl)cc1 (stereo not shown) [Compound 402, 3-(2-chloro-4′-(3,3-dimethyl-5-oxomorpholino)-[1,1′-biphenyl]-3-yl)piperidine-2,6-dione] | 97.4% | > 90% | 5.3 nM | ≤ 100 nM |
